# Counter-ions that a name gives are not always drawn.
# Key:
# 5-HT7(a) receptor = 5-HT7(a) receptor (Homo sapiens, UniProt P34969); experiment: saturation radioligand binding, membranes; conditions: read-out: [^3H]-mesulergine / Kd; labelled compound; stable HEK293
# 5-HT7(b) receptor [1] = target: T1, 5-HT7(b) receptor (Homo sapiens, UniProt P34969)
# 5-HT7(b) receptor [2] = target: T1, 5-HT7(b) receptor; experiment: saturation radioligand binding, membranes; conditions: read-out: [^3H]-mesulergine / Kd; labelled compound; stable HEK293
# 5-HT7(d) receptor = 5-HT7(d) receptor (Homo sapiens, UniProt P34969); experiment: saturation radioligand binding, membranes; conditions: read-out: [^3H]-mesulergine / Kd; labelled compound; stable HEK293
# 5-HT7(d) receptor, sequence (P34969 whole entry): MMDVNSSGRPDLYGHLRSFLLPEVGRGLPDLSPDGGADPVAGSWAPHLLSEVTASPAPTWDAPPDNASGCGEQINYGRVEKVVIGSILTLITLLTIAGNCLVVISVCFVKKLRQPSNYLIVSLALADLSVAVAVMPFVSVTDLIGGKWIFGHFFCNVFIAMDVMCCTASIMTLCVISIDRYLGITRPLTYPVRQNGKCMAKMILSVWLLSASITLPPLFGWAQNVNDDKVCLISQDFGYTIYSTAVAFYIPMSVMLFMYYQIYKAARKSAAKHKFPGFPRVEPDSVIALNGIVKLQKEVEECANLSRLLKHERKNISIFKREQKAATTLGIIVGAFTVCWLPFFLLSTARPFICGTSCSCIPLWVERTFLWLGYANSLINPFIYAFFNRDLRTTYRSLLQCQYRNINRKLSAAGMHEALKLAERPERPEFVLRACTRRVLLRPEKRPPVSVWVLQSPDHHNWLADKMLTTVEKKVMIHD
# T1 sequence (P34969 1-432 limits assumed): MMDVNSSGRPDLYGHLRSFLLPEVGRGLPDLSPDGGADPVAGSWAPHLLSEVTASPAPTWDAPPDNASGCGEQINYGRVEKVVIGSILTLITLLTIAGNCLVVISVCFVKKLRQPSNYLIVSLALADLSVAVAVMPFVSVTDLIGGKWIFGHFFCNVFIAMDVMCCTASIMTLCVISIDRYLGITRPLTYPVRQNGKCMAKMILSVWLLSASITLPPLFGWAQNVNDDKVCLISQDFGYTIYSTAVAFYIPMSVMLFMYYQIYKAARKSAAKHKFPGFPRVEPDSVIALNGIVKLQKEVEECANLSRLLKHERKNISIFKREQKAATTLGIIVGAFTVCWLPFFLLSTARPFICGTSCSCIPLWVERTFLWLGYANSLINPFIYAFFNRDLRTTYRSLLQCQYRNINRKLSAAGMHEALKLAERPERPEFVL
# 5-HT7(a) receptor, sequence (P34969 1-445 isoform P34969-2): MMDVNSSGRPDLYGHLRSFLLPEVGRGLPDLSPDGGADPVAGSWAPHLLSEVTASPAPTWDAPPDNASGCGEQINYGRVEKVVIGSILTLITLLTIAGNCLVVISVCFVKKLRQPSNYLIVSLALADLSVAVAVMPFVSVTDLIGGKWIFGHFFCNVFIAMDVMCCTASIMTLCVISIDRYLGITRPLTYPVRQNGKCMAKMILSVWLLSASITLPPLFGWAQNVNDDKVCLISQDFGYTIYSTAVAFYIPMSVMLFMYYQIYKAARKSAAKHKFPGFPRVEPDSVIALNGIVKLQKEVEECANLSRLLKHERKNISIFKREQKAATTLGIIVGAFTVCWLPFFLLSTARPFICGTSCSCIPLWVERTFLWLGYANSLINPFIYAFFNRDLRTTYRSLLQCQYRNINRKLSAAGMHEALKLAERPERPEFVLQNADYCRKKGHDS
smiles,measurement,setting,value
"CN1C[C@@H](NS(=O)(=O)N(C)C)C[C@@H]2c3cccc4c3c(cn4C)C[C@H]21 [mesulergine, N′-[(8a)-1,6-dimethylergolin-8-yl]-N,N-dimethylsulfamide hydrochloride]",Kd,5-HT7(a) receptor,9.2 ± 1.6 nM
same,pEC50,5-HT7(b) receptor [1],8.7 ± 0.1
same,Kd,5-HT7(b) receptor [2],6.2 ± 0.7 nM
same,Kd,5-HT7(d) receptor,9.6 ± 1.2 nM
